From publication PMC6514812, “[^18F]Fluoroethyltriazolyl Monocyclam Derivatives as Imaging Probes for the Chemokine Receptor CXCR4” (Molecules, 2019)
Blank lines part the entries; values can stand above or below the compound they belong to.

What was measured:
[1] = molecular target: T1, CXCR4 (Homo sapiens, UniProt P61073); test: Competition binding assay vs [^68Ga]Pentixafor in PC3-CXCR4 cells; conditions: for IC50: vs 100 nM [^68Ga]Pentixafor, PC3-CXCR4 cells, 60 min 37 °C; for Hill Slope, Competitive Binding Experiment: vs [^68Ga]Pentixafor, value ± SD
T1 construct: expressed in transfected cells; host or cells: PC3 (human prostate cancer) cells stably transduced with CXCR4
T1 sequence (P61073 whole entry): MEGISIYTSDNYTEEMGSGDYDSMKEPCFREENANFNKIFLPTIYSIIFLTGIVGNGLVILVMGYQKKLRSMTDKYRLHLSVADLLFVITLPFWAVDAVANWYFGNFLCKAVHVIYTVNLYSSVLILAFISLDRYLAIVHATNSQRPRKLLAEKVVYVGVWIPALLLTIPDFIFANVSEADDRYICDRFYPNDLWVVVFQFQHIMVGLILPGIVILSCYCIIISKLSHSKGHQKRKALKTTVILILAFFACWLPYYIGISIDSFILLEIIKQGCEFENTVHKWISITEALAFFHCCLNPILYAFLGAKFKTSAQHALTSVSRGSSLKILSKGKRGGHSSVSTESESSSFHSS
Protocol: PC3-CXCR4 cells were plated in 12-well plates at a density of 500,000 cells per well and incubated for 48 h at 37 °C/5% CO2. Prior to the binding assay the cells were incubated in fresh media and 370–555 kBq of [^68Ga]Pentixafor or [^18F]RPS-544 was added to each well. The corresponding concentration of [^68Ga]Pentixafor in each well was 100 nM, and the concentration of [^18F]RPS-544 was approximately 5 pM. Then non-radioactive ligands were added to give a final ligand concentration in the range 0.001–10,000 nM. A total of eight concentrations were studied, and each concentration was tested in triplicate. The cells were incubated for 60 min at 37 °C/5% CO2. The media was removed under suction, the cells were washed with cold PBS 1X and detached and transferred to tubes for counting in 1 M NaOH. The cells were counted in a Wizard^2 Gamma Counter (PerkinElmer, Waltham, MA, USA). Non-specific binding was subtracted, and the IC50 values were determined by assuming a simple competitive binding interaction and fitting the data to a sigmoidal Hill plot in Origin 9.0 (OriginLab, Northampton, MA, USA). Potencies are expressed as IC50 ± standard deviation (Supplemental Data, Figure S7).

[2] = system: PC3-CXCR4 cells; test: Cell-associated activity in PC3-CXCR4 cells; assay type: cell-based, human; conditions: 1 h
Protocol: Maximum cell-associated activity was calculated by subtracting the cell uptake of the radioactive ligand at the highest non-radioactive ligand concentration of 10 µM (which we considered to be non-specific uptake/binding) from the cell uptake at the lowest non-radioactive ligand concentration of 10^−5 µM.

[3] = molecular target: T1, CXCR4; test: Saturation binding assay in PC3-CXCR4 cells; conditions: for Kd: saturation binding, PC3-CXCR4 cells; for Hill Slope, Saturation Binding Experiment: value ± SD
Protocol: To determine the dissociation constants, saturation binding assays were performed in the PC3-CXCR4 cells. The cells were plated as described above, and approximately 5 nM of the radioligand was added to each well. Then the corresponding non-radioactive ligand was added to give a final concentration in the range 0.001–10,000 nM. A total of eight concentrations were tested, and each concentration was tested in triplicate. The samples were washed and counted as described above. Non-specific binding was subtracted, and Kd values were determined by performing a nonlinear one site binding curve fit with equation y = (Bmax · x)/(Kd + x). Values are expressed as Kd ± standard deviation (Supplemental Data, Figure S8).

[4] = Biodistribution in mice bearing bilateral PC3-WT/PC3-CXCR4 xenograft tumors; assay type: in vivo, BALB/c mice
Protocol: (§1) All animal studies were approved by the Institutional Animal Care and Use Committee of Weill Cornell Medicine (Protocol Number: 2015-0066) and were undertaken in accordance with the guidelines set forth by the USPHS Policy on Humane Care and Use of Laboratory Animals. Animals were housed under standard conditions in approved facilities with 12 h light/dark cycles. Food and water was provided ad libitum throughout the course of the studies. Hairless 6-to-8-week old male BALB/c inbred athymic nude mice (Jackson Laboratory, Bar Harbor, ME, USA) were inoculated bilaterally with 0.2 mL of a 1:1 mixture of 10^7 PC3-CXCR4 cells in PBS and Matrigel (Corning, Tewksbury, MA, USA) subcutaneously in the left shoulder and 0.2 mL of a 1:1 mixture of 10^7 PC3-WT cells in PBS and Matrigel subcutaneously in the right shoulder. Imaging and biodistribution studies were performed three weeks post-implantation, when tumors were approximately 100–300 mm^3.
(§2) For the biodistribution studies, tumor-bearing animals (n = 5/compound/time point) were injected intravenously with 50–100 μL of a 9% v/v EtOH/saline solution containing approximately 1.1 MBq of the radioligand. […] The mice were euthanized at 1 or 2 h p.i. and tissues including blood, heart, lungs, liver, small intestine, large intestine, stomach (with contents), spleen, pancreas, kidneys, muscle, bone, PC3-WT tumors, PC3-CXCR4 tumors, and tail were collected. All organs were weighed and placed in test tubes for counting in a Wizard^2 Gamma Counter (PerkinElmer, Waltham, MA, USA). For comparison, 1% injected activity standards were prepared and counted along with the tissue samples. The tails were counted to correct for any dose extravasation. Activity in each tissue was corrected for decay and for injected activity and expressed as percent injected dose per gram of tissue (%ID/g) ± standard error.

[5] = system: PC3-CXCR4 xenograft tumors; test: as above; assay type: in vivo, BALB/c mice
Protocol: as §1, §2

[6] = 1 h p.i., blocked by co-injection of 5 mg/kg AMD-3100

- IC50 [1]: ~1500 nM
- Hill Slope, Competitive Binding Experiment [1]: 0.96 ± 0.10
- Kd [3]: ~1700 nM
- Hill Slope, Saturation Binding Experiment [3]: 0.98 ± 0.19
SMILES: FCCn1cc(NCc2ccc(CN3CCCNCCNCCCNCC3)cc2)nn1 [RPS-546]
- Cell-Associated Activity [2]: 1.2 ± 0.1 %IA

- IC50 [1]: 601 ± 118 nM
- Hill Slope, Competitive Binding Experiment [1]: 0.97 ± 0.14
- Blood tissue activity ([4]; 1 h p.i.): 0.28±0.06 %ID/g
- Blood tissue activity [4, 6]: 0.41±0.40 %ID/g
- Blood tissue activity ([4]; 2 h p.i.): 0.08±0.01 %ID/g
- Bone tissue activity ([5]; 1 h p.i.): 0.52±0.04 %ID/g
- Heart tissue activity ([5]; 1 h p.i.): 0.18±0.04 %ID/g
- Kidneys tissue activity ([5]; 1 h p.i.): 10.73 ± 1.10 %ID/g
- Large Intestine tissue activity ([5]; 1 h p.i.): 0.20±0.02 %ID/g
- Liver tissue activity ([5]; 1 h p.i.): 6.59±1.00 %ID/g
- Lungs tissue activity ([5]; 1 h p.i.): 0.48±0.05 %ID/g
- Muscle tissue activity ([5]; 1 h p.i.): 0.14±0.01 %ID/g
- PC3-CXCR4 Tumor Uptake ([5]; 1 h p.i.): 3.09 ± 0.52 %ID/g
- PC3-CXCR4 Tumor-to-Tissue Ratio Blood ([5]; 1 h p.i.): 10.1 ± 0.3
- PC3-CXCR4 Tumor-to-Tissue Ratio Bone ([5]; 1 h p.i.): 5.9 ± 0.8
- PC3-CXCR4 Tumor-to-Tissue Ratio Kidneys ([5]; 1 h p.i.): 0.3 ± 0.2
- PC3-CXCR4 Tumor-to-Tissue Ratio Liver ([5]; 1 h p.i.): 0.5 ± 0.2
- PC3-CXCR4 Tumor-to-Tissue Ratio Lungs ([5]; 1 h p.i.): 6.2 ± 0.8
- PC3-CXCR4 Tumor-to-Tissue Ratio Muscle ([5]; 1 h p.i.): 20.3 ± 0.3
- PC3-CXCR4 Tumor-to-Tissue Ratio PC3-WT ([5]; 1 h p.i.): 1.9 ± 0.3
- PC3-WT tumor activity ([5]; 1 h p.i.): 1.54±0.18 %ID/g
- Pancreas tissue activity ([5]; 1 h p.i.): 0.20±0.01 %ID/g
- Small Intestine tissue activity ([5]; 1 h p.i.): 0.95±0.10 %ID/g
- Spleen tissue activity ([5]; 1 h p.i.): 0.53±0.02 %ID/g
- Stomach tissue activity ([5]; 1 h p.i.): 0.17±0.03 %ID/g
- Bone tissue activity [5, 6]: 0.22±0.12 %ID/g
- Heart tissue activity [5, 6]: 0.14±0.19 %ID/g
- Kidneys tissue activity [5, 6]: 4.08±1.10 %ID/g
- Large Intestine tissue activity [5, 6]: 0.23±0.06 %ID/g
- Liver tissue activity [5, 6]: 4.13±0.50 %ID/g
- Lungs tissue activity [5, 6]: 0.35±0.15 %ID/g
- Muscle tissue activity [5, 6]: 0.18±0.35 %ID/g
- PC3-CXCR4 tumor activity [5, 6]: 1.16±0.12 %ID/g
- PC3-WT tumor activity [5, 6]: 0.86±0.10 %ID/g
- Pancreas tissue activity [5, 6]: 0.22±0.04 %ID/g
- Small Intestine tissue activity [5, 6]: 0.51±0.18 %ID/g
- Spleen tissue activity [5, 6]: 0.12±0.03 %ID/g
- Stomach tissue activity [5, 6]: 0.10±0.03 %ID/g
- PC3-CXCR4 Tumor Uptake ([5]; 1 h p.i., listed as [^18F]RPS-547): 3.1 ± 0.5 %ID/g
- Bone tissue activity ([5]; 2 h p.i.): 0.31±0.02 %ID/g
- Heart tissue activity ([5]; 2 h p.i.): 0.08±0.01 %ID/g
- Kidneys tissue activity ([5]; 2 h p.i.): 5.60±0.56 %ID/g
- Large Intestine tissue activity ([5]; 2 h p.i.): 0.19±0.12 %ID/g
- Liver tissue activity ([5]; 2 h p.i.): 5.18±0.27 %ID/g
- Lungs tissue activity ([5]; 2 h p.i.): 0.24±0.02 %ID/g
- Muscle tissue activity ([5]; 2 h p.i.): 0.09±0.02 %ID/g
- PC3-CXCR4 Tumor-to-Tissue Ratio Blood ([5]; 2 h p.i.): 24.0 ± 0.2
- PC3-CXCR4 Tumor-to-Tissue Ratio Bone ([5]; 2 h p.i.): 6.3 ± 0.4
- PC3-CXCR4 Tumor-to-Tissue Ratio Kidneys ([5]; 2 h p.i.): 0.3 ± 0.1
- PC3-CXCR4 Tumor-to-Tissue Ratio Liver ([5]; 2 h p.i.): 0.4 ± 0.2
- PC3-CXCR4 Tumor-to-Tissue Ratio Lungs ([5]; 2 h p.i.): 8.2 ± 0.4
- PC3-CXCR4 Tumor-to-Tissue Ratio Muscle ([5]; 2 h p.i.): 11.0 ± 0.3
- PC3-CXCR4 Tumor-to-Tissue Ratio PC3-WT ([5]; 2 h p.i.): 2.2 ± 0.2
- PC3-CXCR4 tumor activity ([5]; 2 h p.i.): 2.02±0.10 %ID/g
- PC3-WT tumor activity ([5]; 2 h p.i.): 0.86±0.13 %ID/g
- Pancreas tissue activity ([5]; 2 h p.i.): 0.11±0.00 %ID/g
- Small Intestine tissue activity ([5]; 2 h p.i.): 0.80±0.01 %ID/g
- Spleen tissue activity ([5]; 2 h p.i.): 0.36±0.04 %ID/g
- Stomach tissue activity ([5]; 2 h p.i.): 0.11±0.02 %ID/g
- Kd [3]: 261 ± 22 nM
- Hill Slope, Saturation Binding Experiment [3]: 1.03 ± 0.08
SMILES: FCCn1cc(CNCc2ccc(CN3CCCNCCNCCCNCC3)cc2)nn1 [RPS-547]
- Cell-Associated Activity [2]: 6.7 ± 2.8 %IA
